According to patent US5856305A, “Peptides endowed with antiinflammatory activity” (Italfarmaco S.P.A., priority 1994, dated 1999):

System: adjuvant arthritis
Test: adjuvant arthritis test
Assay type: in vivo, Wistar rats
Settings: for Clinical scores (± S.E.): 50 μg/rat peptide in PBS intradermally at day 4, 5 and 6 after M. tuberculosis, score 0 to 18; for Incidence of arthritis (arthritic rats/total rats): 50 μg/rat at day 4, 5 and 6
Protocol: The peptide of the present invention is useful in the treatment of inflammatory pathologies of different kinds and origins, as it is shown by pharmacological test (adjuvant arthritis test) as follows.
15 Wistar rats (C. River; weight 130-140 g) and anaesthetized with CO2, were intradermically administered (injection at the base of the tie) with 0.1 ml of a suspension of 10 mg/ml of heat-inactivated M. tuberculosis (Strain C, DT and PN; Central Vet. Labs--GB), in sterile paraffin oil. The rats were divided in 3 groups of 5 animals each, and at day 4, 5 and 6 from the above treatment, following the same method for inducing arthritis, they were administered with 50 μg/rat dose of the peptide I in 100 μl of PBS for the first group, with PBS only for the second group, while the third group was not treated. The course of the arthritis was monitored according to the following scheme of clinical scores:
The scores range from 0 to 4 for each paw; furthermore one additional score is assigned if there are nodules on the tie, and another futher score is assigned if ears are involved, thereby the score is 0 at minimum and 18 at maximum.

## H-AKVNIKPLEDKILVQANEAETTTAS-OH [1-25]
Day 7
  Clinical scores (± S.E.): 0
Day 8
  Clinical scores (± S.E.): 0
Day 10
  Incidence of arthritis (arthritic rats/total rats): 1/5
  Clinical scores (± S.E.): 0.6 ± 0.6
Day 11
  Incidence of arthritis (arthritic rats/total rats): 5/5
  Clinical scores (± S.E.): 3.8 ± 0.4
Day 12
  Incidence of arthritis (arthritic rats/total rats): 5/5
  Clinical scores (± S.E.): 10.0 ± 0.7
Day 13
  Clinical scores (± S.E.): 12.6 ± 0.6
